Measured values taken from US20040072319A1, “Molecules that modulate ubiquintin-dependent proteolysis and methods for identifying same” (priority 2003, published 2004).
Where a chain is given by its changes, count along the chain named. Peptide text beside a SMILES is read from it.

What was measured:
[1] = target: Cdc4 (yeast F-box protein, recombinant, expressed in baculovirus-infected insect cells) (yeast) (UniProt P07834); test: equilibrium binding
Skp1-Cdc4 complex [2] = target: T1, Skp1-Cdc4 complex (yeast, UniProt P07834 1-779; P52286 1-194, limits assumed); test: fluorescence polarization, 5 nM fluorescein-labeled peptide, Cdc4/Skp1 titrated
T1 construct: Purified complex (Gst removed by TEV, size exclusion) for fluorescence polarization and SPOTS arrays; also called Cdc4/Skp1; cdc4/skp1 complex
Target sequence in this assay (P52286 whole entry, chain 2 of 2, one chain of several): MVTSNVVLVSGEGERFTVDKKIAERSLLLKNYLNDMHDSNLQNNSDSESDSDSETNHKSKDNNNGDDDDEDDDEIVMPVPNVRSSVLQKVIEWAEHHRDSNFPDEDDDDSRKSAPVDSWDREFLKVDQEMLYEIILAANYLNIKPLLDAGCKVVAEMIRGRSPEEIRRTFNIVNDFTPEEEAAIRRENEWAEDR

Skp1-Cdc4 complex [3] = target: T1, Skp1-Cdc4 complex; test: fluorescence polarization
Target sequence in this assay (P52286 whole entry, one chain of several): as the sequence (P52286 whole entry, chain 2 of 2, one chain of several) above

[4] = target: Cdc4 (yeast F-box protein, recombinant, expressed in baculovirus-infected insect cells) (yeast) (UniProt P07834); test: equilibrium binding, fluorescence polarization
[5] = target: Cdc4 (yeast F-box protein, recombinant, expressed in baculovirus-infected insect cells) (yeast) (UniProt P07834); test: equilibrium binding (Table in FIG. 3)
Cdc4 [6] = target: T2, Cdc4 (Saccharomyces cerevisiae, UniProt P07834); test: Capture of Cdc4 from baculovirus-infected insect cell lysates by biotinylated peptide; type: binding, yeast; conditions: insect cells infected with Cdc4 baculovirus
T2 construct: made in house; host or cells: Sf9 insect cells infected with recombinant baculovirus (crude lysate)
T2 sequence (P07834 whole entry, looked up): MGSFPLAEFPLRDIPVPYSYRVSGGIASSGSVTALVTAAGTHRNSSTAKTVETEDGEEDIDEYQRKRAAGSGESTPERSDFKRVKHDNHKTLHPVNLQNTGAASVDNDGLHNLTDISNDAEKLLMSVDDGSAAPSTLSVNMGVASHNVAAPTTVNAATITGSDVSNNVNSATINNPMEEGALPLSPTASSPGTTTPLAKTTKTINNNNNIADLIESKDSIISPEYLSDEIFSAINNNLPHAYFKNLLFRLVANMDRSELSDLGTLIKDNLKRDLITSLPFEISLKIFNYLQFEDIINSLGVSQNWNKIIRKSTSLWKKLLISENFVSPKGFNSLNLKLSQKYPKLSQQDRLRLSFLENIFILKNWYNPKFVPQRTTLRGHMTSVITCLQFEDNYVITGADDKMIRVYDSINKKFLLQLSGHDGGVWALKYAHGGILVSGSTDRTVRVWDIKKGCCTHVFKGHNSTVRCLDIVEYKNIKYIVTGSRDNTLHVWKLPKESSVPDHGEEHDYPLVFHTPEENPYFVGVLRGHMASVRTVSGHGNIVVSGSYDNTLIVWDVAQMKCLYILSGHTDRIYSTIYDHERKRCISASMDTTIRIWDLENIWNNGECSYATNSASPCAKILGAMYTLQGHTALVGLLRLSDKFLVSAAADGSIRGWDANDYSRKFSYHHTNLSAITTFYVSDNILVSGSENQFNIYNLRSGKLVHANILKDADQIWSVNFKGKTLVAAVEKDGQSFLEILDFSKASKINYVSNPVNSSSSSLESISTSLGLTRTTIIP
From the text: (§1) SCF complexes were purified from SF9 cells infected with recombinant baculoviruses and used in binding assays and ubiquitination reactions essentially as described (7). Gst-Skp1 expressed in BL21 codon plus cells (Stratagene) then purified on glutathione resin was used to capture full Cdc4 from insect cell lysates. Truncated forms of Cdc4 were enriched prior to Gst-Skp1 capture by affinity purification of hexahistidine fusion proteins on a metal chelate column. The Skp1-Cdc4 complexes were released from the Gst moiety by cleavage with TEV protease and further purified by size exclusion chromatography on a Superdex S75 or S200 column. Biotin labeled […]p[…] (SEQ ID NO. 1), […] (SEQ ID NO. 12), and APPLSQEpTFSDLWK (SEQ ID NO. 13) were synthesized by addition of d-biotin (Sigma) with an Fmoc-e-aminocaproic acid (Bachem) spacer to carboxy-terminal peptides. […] Streptavidin-agarose beads (Sigma) were incubated in the presence of biotinylated peptide for 90 min. at 4° C. Beads were washed 3 times and then incubated with lysates from Cdc4 expressing baculovirus infected Sf9 cells. Beads were washed 4 times, after which SDS-PAGE gel loading buffer was added and the beads were boiled for 5 min. Proteins were separated by SDS-PAGE and visualized by silver stain. […]

Cdc4 [7] = target: T3, Cdc4 (Saccharomyces cerevisiae, UniProt P07834); test: Fluorescence polarization equilibrium binding of peptides to Cdc4; design: made in house; host or cells: Cdc4: baculovirus-infected insect (Sf9) cells; Gst-Skp1: E. coli BL21 codon plus; species or system yeast; conditions: Hill plot of peptide binding to Cdc4
Method: Equilibrium binding constant determination was carried out using fluorescence polarization on a Beacon 2000 Fluorescence Polarization System (Pan Vera, Wis.) equipped with a 100 μL sample chamber. Fluorescein-labeled probes were prepared through the reaction of carboxyterminal-peptides with 5-(and-6)-carboxyfluorescein succinimidyl ester (Molecular Probes), purified by reverse-phase HPLC, and confirmed by mass spectrometry. Binding studies were conducted with 5 nM fluorescein-labeled probe dissolved in PBS containing 100 μg/ml BSA and 1 mM dithiothreitol. Reaction mixtures were allowed to equilibrate for 10 minutes at room temperature prior to each measurement. All fluorescence polarization measurements were conducted at 22° C.
Target sequence in this assay (P52286 whole entry partner, one chain of several): as the sequence (P52286 whole entry, chain 2 of 2, one chain of several) above

Cdc4-Skp1 complexes = target: T4, Cdc4-Skp1 complexes (Saccharomyces cerevisiae, UniProt P07834); test: Peptide out-competition of phosphorylated substrates binding to Cdc4-Skp1; design: species or system yeast; conditions: peptide 3, 17, 68 μM in FIG. 6f
T4 construct: made in house; host or cells: insect cells (baculovirus)
T4 sequence (P52286 whole entry partner, one chain of several): as the sequence (P52286 whole entry, chain 2 of 2, one chain of several) above
From the text: (§2) SCF complexes were purified from SF9 cells infected with recombinant baculoviruses and used in binding assays and ubiquitination reactions essentially as described (7). Gst-Skp1 expressed in BL21 codon plus cells (Stratagene) then purified on glutathione resin was used to capture full Cdc4 from insect cell lysates. Truncated forms of Cdc4 were enriched prior to Gst-Skp1 capture by affinity purification of hexahistidine fusion proteins on a metal chelate column. The Skp1-Cdc4 complexes were released from the Gst moiety by cleavage with TEV protease and further purified by size exclusion chromatography on a Superdex S75 or S200 column. Biotin labeled […]p[…] (SEQ ID NO. 1), […] (SEQ ID NO. 12), and APPLSQEpTFSDLWK (SEQ ID NO. 13) were synthesized by addition of d-biotin (Sigma) with an Fmoc-e-aminocaproic acid (Bachem) spacer to carboxy-terminal peptides. […] Streptavidin-agarose beads (Sigma) were incubated in the presence of biotinylated peptide for 90 min. at 4° C. Beads were washed 3 times and then incubated with lysates from Cdc4 expressing baculovirus infected Sf9 cells. Beads were washed 4 times, after which SDS-PAGE gel loading buffer was added and the beads were boiled for 5 min. Proteins were separated by SDS-PAGE and visualized by silver stain. Peptide out-competition of phosphorylated substrates was carried out with immunopurified Skp1^FLAG-Cdc4 from insect cells, which were incubated with phosphopeptides prior to addition of phospho-Sic1 or phospho-Cyclin E-Cdk2. For kinase inhibition assays, purified recombinant Clb5-Cdc28 complex (30 ng) was incubated with mutant forms of Sic1 (40 ng) and histone H1 (HH1, 2 μg) for 1 h on ice prior to addition of [^32P]-γ-ATP and incubation at 25° C. for 30 min. Samples were separated by SDS-PAGE and visualized by autoradiography.

SCFcdc4 = target: T5, SCFcdc4 (Saccharomyces cerevisiae, UniProt P07834); test: In vitro ubiquitination of substrates by SCFcdc4 in presence of peptide; type: biochemical, yeast; conditions: excess peptide
T5 construct: made in house; host or cells: SF9 cells infected with recombinant baculoviruses
T5 sequence (P52286 whole entry partner, one chain of several): as the sequence (P52286 whole entry, chain 2 of 2, one chain of several) above
T5 sequence (Q12018 whole entry partner, one chain of several): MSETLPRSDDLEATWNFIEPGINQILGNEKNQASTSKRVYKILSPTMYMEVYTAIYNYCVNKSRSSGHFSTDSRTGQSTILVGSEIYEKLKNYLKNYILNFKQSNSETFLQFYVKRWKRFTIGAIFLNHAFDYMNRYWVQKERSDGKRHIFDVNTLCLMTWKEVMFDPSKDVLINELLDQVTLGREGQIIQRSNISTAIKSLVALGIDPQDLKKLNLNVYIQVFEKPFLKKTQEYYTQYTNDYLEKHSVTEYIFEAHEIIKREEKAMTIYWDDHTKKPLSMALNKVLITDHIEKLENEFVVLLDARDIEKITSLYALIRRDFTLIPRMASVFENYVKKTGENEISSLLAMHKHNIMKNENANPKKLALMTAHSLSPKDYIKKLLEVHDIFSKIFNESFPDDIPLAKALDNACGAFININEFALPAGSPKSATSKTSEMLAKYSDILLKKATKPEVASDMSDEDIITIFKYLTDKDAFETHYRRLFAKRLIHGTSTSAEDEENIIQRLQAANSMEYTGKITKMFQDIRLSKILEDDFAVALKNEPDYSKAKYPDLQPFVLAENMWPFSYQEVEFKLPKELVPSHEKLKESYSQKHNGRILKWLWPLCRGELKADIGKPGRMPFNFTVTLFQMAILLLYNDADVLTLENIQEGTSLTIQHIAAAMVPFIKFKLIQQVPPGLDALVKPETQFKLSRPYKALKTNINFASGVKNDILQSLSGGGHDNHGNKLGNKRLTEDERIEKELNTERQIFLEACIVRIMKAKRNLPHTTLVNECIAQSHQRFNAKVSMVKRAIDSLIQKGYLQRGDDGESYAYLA
From the text: as §1

Cdc4 [8] = target: T3, Cdc4; test: Capture of Cdc4 from baculovirus-infected insect cell lysates by biotinylated peptide; type: binding, yeast; design: made in house; host or cells: Sf9 insect cells infected with recombinant baculovirus (crude lysate); conditions: insect cells infected with Cdc4 baculovirus
From the text: as §2

[9] = target: T6, Cdc4 (yeast F-box protein, recombinant, expressed in baculovirus-infected insect cells) (yeast, UniProt P07834 1-779); test: capture of Gst-Sic1 on Cdc4^FLAG resin, anti-Sic1 blot
T6 construct: also called Cdc4^FLAG
T6 sequence (looked up): T2 sequence (P07834 whole entry, looked up)

Molecule: Cdc 16 peptide LSKNLLpTPQEEWD
- Kd [1]: 750 nM
- Kd (Skp1-Cdc4 complex [2]): 900 nM

Molecule: CycEpS-9mer GLLpSPPQSG (peptide)
- fold lower affinity (against the phosphothreonine peptide) (Skp1-Cdc4 complex [3]): 6 fold
- fold lower affinity (against the phosphothreonine cyclin E peptide) [4]: 6 fold

Molecule: Gcn4-9mer FLPpTPVLED (peptide)
- Kd (Skp1-Cdc4 complex [2]): 880 nM
- Kd [5]: 675 nM

Molecule: ASPLPSGLLTPPQSGKKQS [unphosphorylated peptide, biotin labeled unphosphorylated cyclin E1 19 residue control peptide, reference compound]
- capture of Cdc4 from lysates by biotinylated peptide (Cdc4 [6]; listed as non-phosphorylated CycE^19-pT380 peptide): does not
- capture of Cdc4 from lysates by biotinylated peptide (Cdc4 [6]; listed as unphosphorylated version of the peptide): failed to interact with cdc4

Molecule: CC(C)C[C@H](NC(=O)CNC(=O)[C@H](CO)NC(=O)[C@@H]1CCCN1C(=O)[C@H](CC(C)C)NC(=O)[C@@H]1CCCN1C(=O)[C@H](CO)NC(=O)[C@H](C)N)C(=O)N[C@@H](CC(C)C)C(=O)N[C@H](C(=O)N1CCC[C@H]1C(=O)N1CCC[C@H]1C(=O)N[C@@H](CCC(N)=O)C(=O)N[C@@H](CO)C(=O)NCC(=O)N[C@@H](CCCCN)C(=O)N[C@@H](CCCCN)C(=O)N[C@@H](CCC(N)=O)C(=O)N[C@@H](CO)C(=O)O)[C@@H](C)OP(=O)(O)O [CycE-19mer, ASPLPSGLLpTPPQSGKKQS] (HELM PEPTIDE1{A.S.P.L.P.S.G.L.L.[C[C@@H](OP(=O)(O)O)[C@H](N[*:1])C(=O)[*:2]].P.P.Q.S.G.K.K.Q.S}$$$$V2.0)
- Hill coefficient (Cdc4 [7]): 0.99
- competition with substrates (Sic1, cyclin E1, Far1) for binding to Cdc4 (Cdc4-Skp1 complexes; listed as CycE19-pT380): able to out-compete
- competition with substrates (Sic1, cyclin E1, Far1) for binding to Cdc4 (Cdc4-Skp1 complexes; listed as CycE^19-pT380): out-competes binding of Sic1 and cyclin E1
- competition with substrates (Sic1, cyclin E1, Far1) for binding to Cdc4 (Cdc4-Skp1 complexes; listed as cycE19P): able to compete
- competition with substrates (Sic1, cyclin E1, Far1) for binding to Cdc4 (Cdc4-Skp1 complexes; listed as cycEpT): inhibits the interaction
- competition with substrates (Sic1, cyclin E1, Far1) for binding to Cdc4 (Cdc4-Skp1 complexes; listed as cyclin E phosphopeptide): competed
- block of ubiquitination of SCFcdc4 substrates (SCFcdc4; listed as CycE19-pT380): able to out-compete
- block of ubiquitination of SCFcdc4 substrates (SCFcdc4; listed as cycE19P): blocked
- capture of Cdc4 from lysates by biotinylated peptide (Cdc4 [8]; listed as CycE19-pT380): able to capture Cdc4
- capture of Cdc4 from lysates by biotinylated peptide (Cdc4 [8]; listed as CycE^19-pT380): captures recombinant Cdc4
- capture of Cdc4 from lysates by biotinylated peptide (Cdc4 [8]; listed as cycE19P): capture of Cdc4
- capture of Cdc4 from lysates by biotinylated peptide (Cdc4 [8]; listed as cycEpT19mer): able to precipitate cdc4

B1: Sic1 6m (Sic1^9m with T33, T45 and S76 restored), Gst fusion (other, yeast, UniProt P38634 1-284, looked up)
chain: MAPSAPPRSRGTRYLAQPSGNTSSSALMQGQKTPQKPSQNLVPVTPSTTKSFKNAPLLAPPNSNMGMTAPFNGLTSPQRAPFPKSSVKRTLFQFESHDNGTVREEQEPLGRVNRILFPTQQNVDIDAAEEEEEGEVLLPPSRPTSARQLHLSLERDEFDQTHRKKIIKDVPGAPSDKVITFELAKNWNNNVPKNDARSQESEDEEDIIINPVRVGKNPFASDELVTQEIRNERKRAMLRENPDIEDVITYVNKKGEVVEKRRLTDEEKRRFKPKALFQSRDQEH
modifications: treated with Cln2-Cdc28 kinase
notes: not shown: glutathione S-transferase (Gst) fusion moiety of pGEX-3x
- binding result [9]: no binding

B2: Sic1 7m (Sic1^9m with T45 and S76 restored), Gst fusion (other, yeast, UniProt P38634 1-284, looked up)
chain: B1 chain with T33A
modifications: treated with Cln2-Cdc28 kinase
notes: as for B1
- binding result [9]: no binding
